Source: patent publication US20190315878A1, “BISPECIFIC ANTIBODIES THAT MODULATE TLR-4 SIGNALING AND USES THEREOF” (ARGOS THERAPEUTICS INC., priority 2016, published 2019)

Tests used:
stimulated PBMC cultures [1] = experiment: Cytokine secretion from stimulated PBMC cultures (Cytometric Bead Array); assay type: cell-based, human; details: COX-2 inhibitor in combination with sCD83
Procedure: (§1) To evaluate cytokine secretion from stimulated PBMC cultures in response to sCD83 treatment, the supernatant was collected after culture and analyzed for human cytokines using the Cytometric Bead Array kit (BD® Biosciences) according to the manufacturer's instructions. Data were analyzed using the FCAP Array software (BD® Biosciences). PGE2 concentrations were measured using a competitive ELISA kit (Thermofisher).

stimulated PBMC cultures [2] = experiment: PGE2 secretion from stimulated PBMC cultures (competitive ELISA); assay type: cell-based, human; details: COX-2 inhibitor in combination with sCD83; FIG. 9E
Procedure: as §1

MD-2 binding to sCD83-m3 = target: T1, MD-2 binding to sCD83-m3 (Homo sapiens, UniProt Q9Y6Y9); experiment: LPS derivatives pre-incubated with MD-2; loss of MD-2 binding to sCD83 (cell free ELISA); details: for % inhibition of MD-2 binding to sCD83-m3: LPS derivatives pre-incubated with MD-2, cell free ELISA; for blocking of MD-2 binding to sCD83: FIG. 6B
T1 sequence (Q9Y6Y9 17-160 limits assumed): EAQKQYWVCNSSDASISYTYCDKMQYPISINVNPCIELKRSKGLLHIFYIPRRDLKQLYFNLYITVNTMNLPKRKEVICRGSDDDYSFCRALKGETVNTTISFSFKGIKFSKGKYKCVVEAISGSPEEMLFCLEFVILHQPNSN
Procedure: sCD83 was prepared at 1 μg/mL in Coating Buffer (BD® Bioscience OptEIA ELISA Reagent Set B) and incubated overnight at 4° C. Plates were washed with wash buffer (PBS with 0.05% Tween 20, BD® Bioscience OptEIA Reagent Set B) three times using an ELx405 auto plate washer and then 300 μl of blocking buffer (1% BSA in PBS) was added to each well. The plates were then incubated for 2 hours at 37° C. to block and then washed three times with wash buffer. The protein of interest (MD-2, CD14, MD-2+LPS, or LPS) (R&D Systems®, Inc., Sigma) was serially diluted in seven tubes, and then 100 μl of the diluted protein samples were transferred to the appropriate wells on the capture plate. The plates were then incubated for 1 hour at room temperature in the dark. Plates were washed and goat anti-human biotinylated CD83 detection antibody (R&D Systems®, Inc.) was added at 100 μl/well and incubated for 2 hours at room temperature in the dark. The plates were then washed, and streptavidin-HRP was prepared at a 1:1000 dilution and added at 100 μl/well. The plates were incubated for 1 hour at room temperature in the dark and then washed, and development solution was prepared by combining equal parts of Substrate A plus Substrate B (BD® OptEIA ELISA Reagent Set B) and added to the plates (100 μl/well). The plates were allowed to develop for 1-10 minutes and the reaction was stopped by adding 50 μl/well of stop solution (BD® OptEIA reagents set B). The plates were analyzed on a ELx800 universal microplate reader at 450 nm.
In order to map the sCD83 binding site on MD-2, recombinant MD-2 protein was pre-incubated with each of several LPS derivatives prior to being added to plates coated with sCD83 protein. […] If MD-2 bound to LPS or the LPS derivatives blocked sCD83 binding, the interaction of sCD83 with MD-2 may mimic antagonist regulation of TLR signaling.

IRAK-1 [3] = experiment: Western blotting of GM-CSF-cultured monocytes; assay type: cell-based, human; details: 60 minutes; 25 μg/ml sCD83 or 100 ng/ml LPS; FIG. 7A
Procedure: Monocytes were isolated from PBMC using negative selection (Stemcell) and cultured in R-10 medium ((10% fetal bovine serum (FBS; Atlanta Biologicals), Roswell Park Memorial Institute-1640 (supplemented with 10 mM 4-2-hydroxyethyl-1-piperazineethanesulfonic acid pH 7.4, 1 mM sodium pyruvate, 0.1 mM nonessential amino acids, 2 mM sodium glutamate, and […] 2-mercaptoethanol; Invitrogen® Corp.)) with GM-CSF overnight. sCD83 or LPS was then added for the indicated time points. Cells were lysed in ice cold RIPA buffer in the presence of a protease/phosphatase inhibitor cocktail ([…]). Bradford (BCA) protein assay (Thermo Scientific) was performed to determine total protein concentrations. 4-5 μg of each lysate sample was run on each lane of a Criterion 10-20% Tris-HCL gel at 200V for 50 minutes. The gel was transferred to PVDF membrane at 100V for 75 minutes. […]
The inventors studied the expression of IRAK proteins in the presence of sCD83. […] IRAK-1 protein was detected in untreated cultures and LPS-treated cultures, in contrast to cultures treated with sCD83 (FIG. 7A). Furthermore, no change in IRAK-2, IRAK-4, and IRAK-M protein levels was detected when cells were treated with sCD83 for 60 minutes.

[4] = test system: sCD83-m3 binding on monocytes; experiment: Antibody blocking of sCD83-m3 binding to PBMCs / monocytes (Example 2); design: species or system human; details: post-thaw PBMCs
Procedure: For antibody blocking experiments, cells were pre-incubated with the indicated purified antibodies to CD14 (clone M5E2, BD® Biosciences; clone 61D3, eBioscience® Corp.; clone My4, Beckman Coulter®, Inc.), to CD44s (clone 515, BD® Biosciences; clone 1M7, eBioscience® Corp.; and clone 156-3c11 and clone 5F12, Invitrogen® Corp.), to CD44v6 (clone VFF-7, eBiosciences® Corp.) to TLR4/MD-2 (clone MTS510, eBioscience® Corp.) or to MD-2 (clone 984, eBioscience® Corp.; clone 288307, R&D Systems®, Inc.) for 15 minutes at room temperature without washing prior to addition of sCD83 protein. Isotype control IgG1 and IgG2a antibodies were purchased from eBioscience® Corp.. Cells were washed with 2 mL BD® Stain Buffer (FBS) and incubated with 5 μl of Goat anti-human CD83 biotin (R&D Systems®, Inc.) for 15 minutes at room temperature. Cells were washed twice with 2 ml BD® Stain Buffer (FBS) and incubated with 20 μl of Streptavidin APC (BD® Biosciences) for 15 minutes at room temperature. Background staining was determined without the addition of sCD83 protein. […]

IRAK-1 [5] = experiment: IRAK assay of CD83 activity in macrophage cultures (Western blot); assay type: cell-based, human
Procedure: The IRAK Assay measures the rapid down-regulation of IRAK-1 protein by sCD83 in macrophage cultures. PBMCs were cultured in the presence of GM-CSF for 5 days. Macrophages were harvested and cultured overnight in media containing GM-CSF, then incubated in the presence or absence of a test antibody in 1 mL cultures for various times. Cell lysates were then used to prepare a Western blot and evaluated for IRAK expression as described in more detail in working Example 3.
One vial (2×10^8 total cells) of 2124557 PBMCs were thawed and cultured in T-150 flask with 1000 U/mL GM-CSF for 5 days. The macrophages were harvested, counted and resuspended at 1×10^6 cells/mL in R-10 media with GM-CSF and then cultured overnight. The cells were incubated with various preparations of sCD83 polypeptides, +/−25 μg/mL in 1 mL cultures for various times and then lysed in ice cold RIPA buffer with protease/phosphatase inhibitor cocktail. Bradford (BCA) protein assay was performed to determine total protein concentration.
4-5 μg of each lysate sample was run on a lane of a Criterion 10-20% Tris-HCL gel at 200V for 50 minutes. The gel was transferred to PVDF membrane at 100V for 75 minutes. […]

## CS(=O)(=O)Nc1ccc([N+](=O)[O-])cc1OC1CCCCC1 [NS-398]
Stimulated PBMC cultures [1]; FIG. 9C
  IL-6 secretion: marginal effect
Stimulated PBMC cultures [1]; FIG. 9D
  sCD83 induced IL-10 secretion: suppressed sCD83 inducted IL-10 secretion
Stimulated PBMC cultures [2]
  PGE2 production: blocked PGE2 production

## KDO-lipid A [KDO-Lipid A variant]
MD-2 binding to sCD83-m3
  % inhibition of MD-2 binding to sCD83-m3: 93%
MD-2 binding to sCD83-m3; added first to sCD83 bound plates and washed prior to addition of MD-2 protein
  blocking of MD-2 binding to sCD83: no longer blocked MD-2 binding to sCD83
MD-2 binding to sCD83-m3; pre-incubated with MD-2
  blocking of MD-2 binding to sCD83: prevented MD-2 binding to sCD83
MD-2 binding to sCD83-m3; pre-incubated with MD-2, listed as KDO
  blocking of MD-2 binding to sCD83: blocks sCD83 binding to MD-2

## diphosphoryl-Lipid A [Lipid A Diphos]
MD-2 binding to sCD83-m3
  % inhibition of MD-2 binding to sCD83-m3: 19%

## lipopolysaccharide [LPS]
MD-2 binding to sCD83-m3
  % inhibition of MD-2 binding to sCD83-m3: 25%
IRAK-1 [3]
  IRAK-1 protein expression: detected
[4]
  % inhibition (relative to control): 5%
IRAK-1 [5]
  down-regulation of IRAK-1 protein in macrophage cultures: does not have this effect
IRAK-1 [5]; macrophages, 25 μg/mL
  IRAK assay result: negative result

## monophosphoryl-Lipid A [Lipid A Monophos]
MD-2 binding to sCD83-m3
  % inhibition of MD-2 binding to sCD83-m3: 22%
